Experimental data: patent US20070259888A1, “Novel Compounds” (ASTRAZENECA AB, priority 2006, published 2007)
pEC50: −log10 of the molar value.

Columns and labels:
[1] = molecular target: T1, hM1 (human Muscarinic receptor subtype 1) (Homo sapiens, UniProt P11229); test: Human M1 calcium mobilization FLIPR assay; format: cell-based; settings: CHO cells expressing hM1, FLIPR; for pEC50: read-out: hM1EC50; for Emax: read-out: hM1Emax
T1 construct: expressed in transfected cells; host or cells: CHO cells (chinese hamster ovary cells, ATCC)
T1 sequence (P11229 1-460): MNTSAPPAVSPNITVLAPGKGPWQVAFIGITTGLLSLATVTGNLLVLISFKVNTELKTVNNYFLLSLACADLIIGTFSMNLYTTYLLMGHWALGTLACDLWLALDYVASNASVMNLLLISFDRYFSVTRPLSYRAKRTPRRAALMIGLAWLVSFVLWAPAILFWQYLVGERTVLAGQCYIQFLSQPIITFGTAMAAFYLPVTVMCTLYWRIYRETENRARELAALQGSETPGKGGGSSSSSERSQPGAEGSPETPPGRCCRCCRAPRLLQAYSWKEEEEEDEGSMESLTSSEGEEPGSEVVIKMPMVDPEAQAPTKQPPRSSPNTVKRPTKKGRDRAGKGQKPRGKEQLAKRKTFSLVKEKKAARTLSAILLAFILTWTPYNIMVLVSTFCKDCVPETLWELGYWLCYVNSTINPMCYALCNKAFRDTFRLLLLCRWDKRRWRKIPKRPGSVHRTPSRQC
Description: The compound activity in the present invention (EC50 or IC50) was measured using a 384 plate-based imaging assay that monitors drug induced intracellular Ca^2+ release in whole cells. Activation of hM1 (human Muscarinic receptor subtype 1, gene bank access NM_000738), rM1 (rat Muscarinic receptor subtype 1, gene bank access NM_080773), hM3 (human Muscarinic receptor subtype 3, gene bank access NM_000740NM_000740) and hM5 (human Muscarinic receptor subtype 5, gene bank access NM_0121258) receptors expressed in CHO cells (chinese hamster ovary cells, ATCC) was quantified in a Molecular Devices FLIPR II™ instrument as an increase in fluorescent signal. Inhibition of hM3 and hM5 by compounds was determined by the decrease in fluorescent signal in response to 2 nM acetylcholine activation.
CHO cells were plated in 384-black polylysine coated plate (Costar) at 8000 cells/well/50 μl for 24 hours or 4000 cells/well for 48 hours in a humidified incubator (5% CO2 and 37° C.) in DMEM/F12 medium without selection agent. Prior to the experiment the cell culture medium was removed from the plates by inversion. A loading solution of 30 μl of Hank's balanced salt solution, 10 mM Hepes and 2.5 mM Probenicid at Ph 7.4 (Cat no. 311-520-VL, Wisent) with 2 μM calcium indicator dye (FLUO-3AM, Molecular Probes F14202) was added to each well. Plates were incubated at 37° C. for 60 minutes prior to start the experiment. The incubation was terminated by washing the cells four times in assay buffer, leaving a residual 25 μl buffer per well. Cell plates were then transferred to the FLIPR, ready for compound additions.
The day of experiment, acetylcholine and compounds were diluted in three-fold concentration range (10 points serial dilution) for addition by FLIPR instrument. For all calcium assays, a baseline reading was taken for 30 seconds followed by the addition of 12.5 μl (25 μl for hM1 and rM1) of compounds, resulting in a total well volume of 37.5 μl (50 μl for hM1 and rM1). Data were collected every 1.6 seconds for 300 seconds. For hM3 and hM5 an additional 12.5 μl of acetylcholine (2 nM final) was added at 300 seconds. After this addition of acetylcholine (producing a final volume of 50 μl), the FLIPR continued to collect data every 2 seconds for 240 seconds. The fluorescence emission was read using filter 1 (emission 520-545 nm) by the FLIPR on board CCD camera.
Calcium mobilization output data were calculated as the maximal relative fluorescence unit (RFU) minus the minimal value for both compound and agonist reading frame (except for hM1 and rM1 using only the maximal RFU). Data were analyzed using sigmoidal fits of a non-linear curve-fitting program (XLfit version 5.0.6 from ID Business Solutions Limited, Guildford, UK). All EC50 and IC50 values are reported as geometric means of ‘n’ independent experiments.

[2] = molecular target: T2, human M2 receptor (human Muscarinic receptor subtype 2) (Homo sapiens, UniProt P08172); test: hM2 receptor GTPγS binding; format: biochemical; settings: CHO membranes expressing hM2, GTPγ35S binding; for pEC50: read-out: hM2_EC50
T2 construct: purchased Perkin-Elmer RBHM2M; host or cells: Chinese hamster ovary cells (CHO), membranes
T2 sequence (P08172 1-466): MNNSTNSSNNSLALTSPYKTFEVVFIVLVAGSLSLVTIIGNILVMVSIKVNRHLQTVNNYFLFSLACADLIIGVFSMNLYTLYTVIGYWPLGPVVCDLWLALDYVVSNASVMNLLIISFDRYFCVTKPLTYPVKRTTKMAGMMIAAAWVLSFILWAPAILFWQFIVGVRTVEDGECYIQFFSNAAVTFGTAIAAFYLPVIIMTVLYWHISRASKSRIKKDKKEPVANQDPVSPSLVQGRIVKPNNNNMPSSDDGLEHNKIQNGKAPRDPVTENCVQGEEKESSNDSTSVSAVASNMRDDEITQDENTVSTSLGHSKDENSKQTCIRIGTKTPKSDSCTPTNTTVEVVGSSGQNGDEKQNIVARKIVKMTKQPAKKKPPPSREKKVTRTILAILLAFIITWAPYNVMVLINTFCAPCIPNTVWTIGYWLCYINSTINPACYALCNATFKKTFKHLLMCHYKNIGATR
Description: hM2 Receptor GTPyS Binding
Membranes produced from Chinese hamster ovary cells (CHO) expressing the cloned human M2 receptor (human Muscarinic receptor subtype 2, gene bank access NM_000739), were obtained from Perkin-Elmer (RBHM2M). The membranes were thawed at 37° C., passed 3 times through a 23-gauge blunt-end needle, diluted in the GTPγS binding buffer (50 mM Hepes, 20 mM NaOH, 100 mM NaCl, 1 mM EDTA, 5 mM MgCl2, pH 7.4, 100 μM DTT). The EC50, IC50 and Emax of the compounds of the invention were evaluated from 10-point dose-response curves (three fold concentration range) done in 60 μl in 384-well non-specific binding surface plate (Corning). Ten microliters from the dose-response curves plate (5× concentration) were transferred to another 384 well plate containing the following: 10 μg of hM2 membranes, 500 μg of Flashblue beads (Perkin-Elmer) and GDP in a 25 μl volume. An additional 15 μl containing 3.3× (55000 dpm) of GTPγ^35S (0.4 nM final) were added to the wells resulting in a total well volume of 50 μl. Basal and maximal stimulated GTPγ^35S binding was determined in absence and presence of 30 μM of acetylcholine agonist. The membranes/beads mix were pre-incubated for 15 minutes at room temperature with 25 μM GDP prior to distribution in plates (12.5 μM final). The reversal of acetylcholine-induced stimulation (2 μM final) of GTPγ^35S binding was used to assay the antagonist properties (IC50) of the compounds. The plates were incubated for 60 minutes at room temperature with shaking, then centrifuged at 2000 rpm for 5 minutes. The radioactivity (cpm) was counted in a Trilux (Perkin-Elmer).
Values of EC50, IC50 and Emax were obtained using sigmoidal fits of a non-linear curve-fitting program (XLfit version 5.0.6 from ID Business Solutions Limited, Guildford, UK) of percent-stimulated GTPγ^35S binding vs. log (molar ligand).
All EC50 and IC50 values are reported as geometric means of ‘n’ independent experiments. […] The IC50 was the concentration of the compound of the invention at which 50% inhibition of acetylcholine GTPγ^35S binding stimulation has been observed.

SMILES | pEC50 [1] | Emax [1] | Emax [2] | pEC50 [2]
O=C(N[C@H]1CCCC[C@@H]1CN1CCCC(c2ccccc2)C1)c1ccc(-n2cccn2)nc1 (stereo partly shown) | 6.41 | 105% | – | –
CCOC[C@@H]1CCCN(C[C@H]2CCCC[C@@H]2NC(=O)CNC(C)=O)C1 | 6.49 | 91% | – | –
CCO[C@@H]1CCCN(C[C@H]2CCCC[C@@H]2NC(=O)c2cnccn2)C1 | 5.82 | 76% | – | –
CCOCC1CCCN(C[C@@H]2CCCC[C@H]2NC(=O)c2ccc(-c3cnco3)cc2)C1 (mixture of isomers) | 7.77 | 97% | 25% | 5.26
CCCCC1CCCN(C[C@@H]2CCCC[C@H]2NC(=O)CCc2ccc(Cl)cc2)C1 (mixture of isomers) | 6.76 | 86% | 38% | 5.91
CCCCC1CCCN(C[C@@H]2CCCC[C@H]2NC(=O)c2ccc(CN(CC)CC)cc2)C1 (mixture of isomers) | 6.99 | 94% | 2% | 6.78
CCOC[C@@H]1CCCN(C[C@H]2CCCC[C@@H]2NC(=O)c2ccc(CN(C(C)=O)C(C)=O)cc2)C1 [4-[(diacetylamino)methyl]-N-((1S,2R)-2-{[(3R)-3-(ethoxymethyl)piperidin-1-yl]methyl}cyclohexyl)benzamide] | 6.99 | 91% | 18% | 5.48
C=CCO[C@@H]1CCCN(C[C@H]2CCCC[C@@H]2NC(=O)c2ccc(-n3cccn3)nc2)C1 [N-((1S,2R)-2-{[(3R)-3-(allyloxy)piperidin-1-yl]methyl}cyclohexyl)-6-(1H-pyrazol-1-yl)nicotinamide] | 7.48 | 97% | 50% | 5.35
CCOC[C@@H]1CCCN(C[C@H]2CCCC[C@@H]2NC(=O)c2cnc(C)cc2C)C1 [N-((1S,2R)-2-{[(3R)-3-(ethoxymethyl)piperidin-1-yl]methyl}cyclohexyl)-4,6-dimethylnicotinamide] | 6.30 | 54% | – | –
CCOC[C@@H]1CCCN(C[C@H]2CCCC[C@@H]2NC(=O)c2ccc3c(c2)OCCN3C)C1 [N-((1S,2R)-2-{[(3R)-3-(ethoxymethyl)piperidin-1-yl]methyl}cyclohexyl)-4-methyl-3,4-dihydro-2H-1,4-benzoxazine-7-carboxamide] | 6.82 | 85% | 0% | < 4.52
CCOC[C@@H]1CCCN(C[C@H]2CCCC[C@@H]2NC(=O)c2ccc(CNS(C)(=O)=O)cc2)C1 [N-((1S,2R)-2-{[(3R)-3-(ethoxymethyl)piperidin-1-yl]methyl}cyclohexyl)-4-{[(methylsulfonyl)amino]methyl}benzamide] | 7.70 | 95% | 34% | 5.87

More lines, now with the values ahead:

pEC50 [1] | Emax [1] | Emax [2] | pEC50 [2] | SMILES
7.96 | 102% | 40% | 5.84 | CCOC[C@@H]1CCCN(C[C@H]2CCCC[C@@H]2NC(=O)c2ccc(CNS(=O)(=O)C3CC3)cc2)C1
7.31 | 80% | 19% | 6.41 | C=CCOCC1CCCN(C[C@@H]2CCCC[C@H]2NC(=O)c2ccc(CN3CCN(C)CC3)cc2)C1 (mixture of isomers) [Trans-(±)-N-[2-({3-[(Allyloxy)methyl]piperidin-1-yl}methyl)cyclohexyl]-4-[(4-methylpiperazin-1-yl)methyl]benzamide]
8.05 | 95% | 27% | 5.92 | CCOC[C@@H]1CCCN(C[C@H]2CCCC[C@@H]2NC(=O)c2ccc(-n3cnnn3)cc2)C1 [N-((1S,2R)-2-{[(3R)-3-(ethoxymethyl)piperidin-1-yl]methyl}cyclohexyl)-4-(1H-tetrazol-1-yl)benzamide]
7.66 | 82% | 0% | < 4.52 | CCOC[C@@H]1CCCN(C[C@H]2CCCC[C@@H]2NC(=O)c2cc3nc(C)cc(C)n3n2)C1 [N-((1S,2R)-2-{[(3R)-3-(ethoxymethyl)piperidin-1-yl]methyl}cyclohexyl)-5,7-dimethylpyrazolo[1,5-a]pyrimidine-2-carboxamid]
7.39 | 91% | 60% | 6.97 | CCOC[C@@H]1CCCN(C[C@H]2CCCC[C@@H]2NC(=O)c2ccc(N3CCCC3)nc2)C1 [N-((1S,2R)-2-{[(3R)-3-(ethoxymethyl)piperidin-1-yl]methyl}cyclohexyl)-6-pyrrolidin-1-ylnicotinamide]
6.92 | 74% | 34% | 5.72 | CCOC[C@@H]1CCCN(C[C@H]2CCCC[C@@H]2NC(=O)c2ccccc2)C1 [N-((1S,2R)-2-{[(3R)-3-(ethoxymethyl)piperidin-1-yl]methyl}cyclohexyl)benzamide]
7.26 | 98% | 54% | 6.24 | CCOC[C@@H]1CCCN(C[C@H]2CCCC[C@@H]2NC(=O)C2CCc3ccccc3O2)C1 (stereo partly drawn) [N-((1S,2R)-2-{[(3R)-3-(ethoxymethyl)piperidin-1-yl]methyl}cyclohexyl)chromane-2-carboxamide]
